Assay [1] has as its system Stat3. Description: Stat3 DNA binding assay (EMSA) with HeLa nuclear extracts. Format: biochemical. The note with it: HeLa nuclear extract, FIG. 7A/7B. As to the method:
Electrophoretic mobility shift assay (EMSA) was performed as described by the manufacturer (Li-Cor Biosciences, Lincoln, Nebr.). Briefly, nuclear extracts were made from HeLa cells using the NucBuster Protein Extraction Kit as described by the manufacturer (EMD Biosciences, San Diego, Calif.). 5 μg of nuclear extract was pre-incubated with the indicated dose of indicated compound for 30 minutes prior to a 15-minute incubation with the IR700-labeled consensus Stat3 oligonucleotide. Samples were then electrophoresed on a polyacrylamide gel and directly scanned using the Odyssey infrared imaging system (Li-Cor Biosciences). For the enzyme-linked immunosorbent assay (ELISA), 5 μg of nuclear extract was preincubated with indicated concentration of indicated compound for 30 minutes prior to the addition of biotinylated oligo (5′-Biotin-[…]-3′, SEQ ID NO. 1). Stat3-DNA complexes were then captured on streptavidin coated 96 well plates (Pierce, Rockford, Ill.). Bound complexes were then incubated with Stat3 polyclonal antibody (Santa Cruz Biotechnology, Santa Cruz, Calif.) followed by anti-rabbit HRP conjugated secondary antibody (GE Healthcare, Pittsburgh, Pa.). Bound antibody was then visualized by addition of TMB substrate (Pierce) and absorbance measured at 450 nm,
Nuclear extracts from HeLa cells, which contain constitutively activated Stat3 as detected by phoshporylation at the tyrosine 705 residue, were used to perform Stat3 EMSAs to monitor Stat3 DNA binding activity. Nuclear extracts were incubated with indicated compound prior to incubation with IR700-labeled Stat3 consensus oligonucleotide. Binding of Stat3 to the oligonucleotide was monitored by gel electrophoresis and detection using a LiCor Odyssey infrared scanner.
A general note: In EMSA bound probe runs differently from free probe, usually more slowly.

Assay [2] deals with Stat3. The assay is described as follows: Stat3-luciferase (Stat3-Luc) reporter assay, OSM-stimulated HeLa cells. In kind it is cell-based. The settings on record: FIG. 6. As to the method:
HeLa Cells were co-transfected with Stat3-luciferase (Stat3-Luc) reporter vector (Panomics, Fremont, Calif.) and Renilla luciferase (Promega, Madison, Wis.) using Lipofectamine 2000 as described by the manufacturer (Invitrogen). Following transfection, cells were maintained in medium containing 0.5% FBS for 24 hours. Cells were then treated with the indicated compound for 30 minutes prior to the addition of 25 ng/ml oncostatin M (OSM) (R&D Systems, Minneapolis, Minn.) to the medium. 6 hours following OSM addition, cells were harvested and levels of firefly and renilla luciferase were measured using the Dual-Glo Luciferase Assay System as described by the manufacturer (Promega).
Compounds were tested for their ability to inhibit Stat3 transcription activation activity in cells using a Stat3-luciferase (Stat3-luc) reporter construct. Cells transfected with Stat3-luc were cultured in reduced serum medium prior to addition of indicated compound for 30 minutes. Cells were then stimulated with 25 ng/ml oncostatin M (OSM) for 6 hours followed by detection of Stat3-luc reporter activity. […] AG490, a known inhibitor of the Jak-Stat pathway, was included as a positive control for Stat3 inhibition.
(In a reporter assay the amount or activity of a reporter protein is the signal.)

The test system of assay [3] is SW480 non-side population (NSP) cells. Description: MTT cell viability, SW480 non-side population. In kind it is cell-based. The settings on record: Homo sapiens, 48 h. As to the method:
(§1) To identify and isolate side population (SP) and non-SP fractions, SW480 cells were removed from the culture dish with trypsin and EDTA, pelleted by centrifugation, washed with phosphate-buffered saline (PBS), and resuspended at 37° C. in Dulbecco's modified Eagle's medium (DMEM) containing 2% FBS and 1 mM HEPES. The cells were then labeled with Hoechst 33342 (Invitrogen) at a concentration of 5 μg/mL. The labeled cells were incubated for 120 minutes at 37° C., either alone or with 50 μM verapamil (Sigma-Aldrich, St. Louis). After staining, the cells were suspended in Hanks' balanced saline solution (HBSS; Invitrogen) containing 2% FBS and 1 mM HEPES, passed a through 40 μm mesh filter, and maintained at 4° C. until flow cytometry analysis. The Hoechst dye was excited at 350 nm, and its fluorescence was measured at two wavelengths using a 450 DF10 (450/20 nm band-pass filter) and a 675LP (675 nm long-pass edge filter) optical filter. The gating on forward and side scatter was not stringent, and only debris was excluded,
For 3-(4,5 dimethylthiazol-2-yl)-2,5-diphenyltetrazolium (MTT) (Sigma-Aldrich, St. Louis, Mo.) analysis, cells were plated in 96 well plates at 10,000 cells per well. 24 hours after plating, compound was added to cells at indicated doses. […] The absorbance of each well was measured at 570 nm using a microplate reader. […]

The subject of assay [4] is SW480 Hoechst SP cells. Description: MTT cell viability, SW480 Hoechst side population CSCs. The note with it: for IC50: Homo sapiens, SW480 Hoechst SP, 48 h. In kind it is cell-based. The procedure: as §1
(§2) For 3-(4,5 dimethylthiazol-2-yl)-2,5-diphenyltetrazolium (MTT) (Sigma-Aldrich, St. Louis, Mo.) analysis, cells were plated in 96 well plates at 10,000 cells per well. 24 hours after plating, compound was added to cells at indicated doses. 22 hours following compound addition, MTT was added to each well (0.5 mg/ml, final concentration) and plates were incubated for an additional 2 hours at 37° C. Medium was then aspirated and the formazan product was solubilized in 100 μl of isopropyl alcohol. The absorbance of each well was measured at 570 nm using a microplate reader.
The IC50 of compound 401 against the Hoechst side population was accessed in MTT assays and was compared to the IC50 against the non-side population.
In addition, we tested the activities of several other compounds against cancer stem cells. Briefly, freshly isolated CSCs (SW480 Hoechst SP cells or CD44^high FaDu cells) were exposed to a dose range (30-0.117 μM) of compound for 48 h before examining cell viability by MTT assay. IC50s were estimated by plotting the percentage of surviving cells. As shown in Table 4 and Table 5, compounds of present invention can target cancer stem cells.

Assay [5] concerns CD44^low FaDu cells. The assay is described as follows: MTT cell viability, CD44low FaDu cells. The note with it: Homo sapiens, 48 h. Format: cell-based.
Assay [6] has as its system CD44^high FaDu cells. Description: MTT cell viability, CD44high FaDu CSCs. The settings on record: Homo sapiens, 48 h. Format: cell-based. The procedure:
CD44^high cells were isolated by FACS according to the methods described in Ponti et al, with slight modification. Briefly, after trypsinization and recovery of cells for 30 minutes at 37° C. in growth media, cells were pelleted at 400×g and were resuspended in PBS with 2% FBS and 1 mM EDTA at 1×10^6 cells/mL. Cells were then incubated on ice with a 1:100 dilution of CD44-FITC (BD Biosicences, San Diego, Calif.) for 15 minutes. Alternatively, CD24-PE (BD Bioscences, San Diego, Calif.) (1:100) was utilized for negative selection. After washing three times, cells were resuspended at 2×10^6/mL and passed through a […] mesh before sorting.
as §2
In addition, we tested the activities of several other compounds against cancer stem cells. […]

In assay [7] the test system is Paca2 cells. The assay is described as follows: MTT cell viability Paca2. In kind it is cell-based. The note with it: PaCa-2; Paca2, Pancreas, MTT 24 hours. The procedure: as §2
(§3) Cells plated in 96 well plates and treated with indicated compounds were subjected to MTT analysis at 24 hours following compound treatment to determine cell viability.

The test system of assay [8] is FaDu cells. Description: MTT cell viability FaDu. Format: cell-based. The settings on record: Homo sapiens, Head and Neck, MTT 24 hours. The procedure: as §2, §3
The test system of assay [9] is CD44^high CSCs. Description: Sphere assay with CD44high CSCs. Format: cell-based. The settings on record: spheres grown 72 hours before challenge, FIGS. 10A and 10B. The procedure:
A reliable method of measuring the self-renewal capacity of cell population if the ability to be cultured as spheres in the absence of serum or attachment. CD44^high FaDu or Hoechst side population cancer stem cells were cultured in ultra low attachment plates in cancer stem cell media (DMEM/F12, B27 Neurobasal supplement, 20 ng/ml EGF, 10 ng/ml FGF, 4 μg/ml insulin, and 0.4% BSA) to allow spheres formation. Typically, sphere formation was evaluated by microscopy after 10-14 days in culture and spheres with >50 cells were scored.
One of the hallmarks cancer stem cells is their ability to self-renew. A reliable method of measuring the self-renewal capacity of cell populations is the ability to be cultured as spheres in the absence of serum or attachment. To compare the ability of compound 401 to other targeted and chemotherapeutic agents, FACS-isolated CD44^high CSCs were grown as spheres for 72 hours before being challenged with a panel of therapeutic agents. […] Tarceva, Sutent, and Gleevec were added at approximately three times their reported therapeutic concentrations.

For assay [10], the system named is SW480 cells. The assay is described as follows: Hoechst side population staining of SW480 cells. Format: cell-based. The settings on record: treatment before Hoechst staining, FIG. 8A. As to the method:
as §1
To confirm that this side population is enriched with cancer stem cells, a control set of SW480 cells were first treated with Verapamil, an inhibitor of ABC transporters, before stained with Hoechst.

Turning to `CC(=O)c1cc2c(o1)C(=O)c1cc(Cl)ccc1C2=O` [Compound 416, 2-Acetyl-7-Chloro-naphtho[2,3-b]furan-4,9-dione], the “inhibition of Stat3 DNA binding activity” value in [1] is reported as “can inhibit Stat3's DNA binding activity”.

Take `CC(=O)c1cc2c(o1)C(=O)c1cc(F)ccc1C2=O` [Compound 418, 2-Acetyl-7-Fluoro-naphtho[2,3-b]furan-4,9-dione]: the “inhibition of Stat3 DNA binding activity” value in [1] is given as “can inhibit Stat3's DNA binding activity”.

Consider `O=C(c1ccccc1)c1cc2cc3ccccc3cc2s1` [Compound 1001, reference compound], for which the “inhibition of OSM-stimulated Stat3 reporter activity” value in assay [2] is reported as “did not inhibit OSM-stimulated Stat3 reporter activity even at a much higher concentration”.

As to `C=C(OP(=O)(O)O)C1=CC2C(=O)c3ccccc3C(=O)C2O1` (stereo not drawn) [Compound 4011, phosphoric acid mono-[1-(4,9-dioxo-3a,4,9,9a-tetrahydro-naphtho[2,3-b]furan-2-yl)-vinyl] ester], the IC50 was 340 nM in assay [3]; 380 nM in assay [4]; 420 nM in assay [5]; 270 nM in assay [6]; 446 nM in assay [7]; 353 nM in [8].

Regarding `C=C(OP(=O)(OC)OC)C1=CC2C(=O)c3ccccc3C(=O)C2O1` (stereo not drawn) [Compound 4012, phosphoric acid 1-(4,9-dioxo-3a,4,9,9a-tetrahydro-naphtho[2,3-b]furan-2-yl)-vinyl ester dimethyl ester], the IC50 in assay [3] worked out at 810 nM; in [4], 570 nM; in [5] it was 760 nM; in [6], 1050 nM; in assay [8], 1040 nM.

For the molecule `COc1cccc2c1C(=O)c1c(O)c3c(c(O)c1C2=O)C[C@@](O)(C(=O)CO)C[C@@H]3O[C@H]1C[C@H](N)[C@H](O)[C@H](C)O1` [Doxorubicin, reference compound], in [4] (FIG. 8B), the “sensitivity of side population compared to non-side population” value was “the side population is much more resistant than the non-side population”. Also, the “prevention of sphere proliferation” value in [9] is “spheres were resistant”.

`COc1ccc(CCN(C)CCCC(C#N)(c2ccc(OC)c(OC)c2)C(C)C)cc1OC` (stereo not drawn) [Verapamil]: in [10], the “effect on Hoechst side population” value is “loss of the side population”.

`CC(=O)O[C@@]12CO[C@@H]1C[C@H](O)[C@@]1(C)C(=O)[C@H](O)C3=C(C)[C@@H](OC(=O)[C@H](O)[C@@H](NC(=O)OC(C)(C)C)c4ccccc4)C[C@@](O)([C@@H](OC(=O)c4ccccc4)[C@H]21)C3(C)C` [docetaxel]: the “prevention of sphere proliferation” value in assay [9] is listed as “spheres were resistant”.

What is called IC50 is the concentration at which inhibition is half-maximal. Higher therefore signals lower potency.
